Experimental data reported in patent US12252524B2, “GIP/GLP1 co-agonist compounds” (Eli Lilly and Company, priority 2018, dated 2025).
Square brackets hold non-standard residues; d marks the D form. Peptide text beside a SMILES is read from it. αMePhe(2-F) = C[C@](N)(Cc1ccccc1F)C(=O)O; αMeY = C[C@](N)(Cc1ccc(O)cc1)C(=O)O; 4Pal = N[C@@H](Cc1ccncc1)C(=O)O; αMeL = CC(C)C[C@](C)(N)C(=O)O; Orn = NCCC[C@H](N)C(=O)O; Aib = CC(C)(N)C(=O)O

Experiments:
[1] = biological target: T1, gastric inhibitory peptide receptor (GIPR) (Homo sapiens, UniProt P48546); assay: cAMP pharmacological functional assay in presence of casein, hGIPR; type: cell-based; details: HEK293 cells expressing hGIPR, 0.1% Casein, geometric mean; read-out: hGIPR cAMP Rel EC50 nM (SEM, n)
T1 sequence (P48546 22-466): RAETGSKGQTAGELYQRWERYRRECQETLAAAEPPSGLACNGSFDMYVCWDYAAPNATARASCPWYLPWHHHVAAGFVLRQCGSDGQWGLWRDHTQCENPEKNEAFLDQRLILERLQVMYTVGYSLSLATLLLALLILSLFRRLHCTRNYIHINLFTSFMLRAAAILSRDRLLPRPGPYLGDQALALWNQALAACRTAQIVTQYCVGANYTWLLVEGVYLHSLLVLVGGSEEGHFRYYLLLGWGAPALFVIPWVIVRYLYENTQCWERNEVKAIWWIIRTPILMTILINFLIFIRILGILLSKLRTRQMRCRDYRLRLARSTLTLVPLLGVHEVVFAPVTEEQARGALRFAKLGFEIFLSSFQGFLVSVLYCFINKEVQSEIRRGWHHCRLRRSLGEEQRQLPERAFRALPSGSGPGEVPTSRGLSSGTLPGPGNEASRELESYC

[2] = biological target: human GLP-1 receptor (GLP-1R) (Homo sapiens, UniProt P43220); assay: cAMP pharmacological functional assay in presence of casein, hGLP-1R; type: cell-based; details: HEK293 cells expressing hGLP-1R, 0.1% Casein, geometric mean; read-out: hGLP1R cAMP Rel EC50 nM (SEM, n)
human GLP-1 receptor (GLP-1R), sequence (P43220 24-463): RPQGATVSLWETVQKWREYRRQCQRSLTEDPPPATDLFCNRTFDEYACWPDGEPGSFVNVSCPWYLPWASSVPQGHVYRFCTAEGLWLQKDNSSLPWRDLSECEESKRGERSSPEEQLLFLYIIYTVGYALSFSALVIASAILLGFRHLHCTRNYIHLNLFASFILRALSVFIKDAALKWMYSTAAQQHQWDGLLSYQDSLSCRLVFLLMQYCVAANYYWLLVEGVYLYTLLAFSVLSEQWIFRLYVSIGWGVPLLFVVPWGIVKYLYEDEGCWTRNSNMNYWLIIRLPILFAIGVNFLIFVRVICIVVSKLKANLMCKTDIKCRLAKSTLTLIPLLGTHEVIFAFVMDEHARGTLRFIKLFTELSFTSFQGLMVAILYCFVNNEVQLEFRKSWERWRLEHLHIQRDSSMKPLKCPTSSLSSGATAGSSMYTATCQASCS

Compound CC[C@H](C)[C@H](NC(=O)[C@H](CC(C)C)NC(=O)[C@H](Cc1ccc(O)cc1)NC(=O)[C@@H](CCC(=O)O)NC(=O)[C@@H](NC(=O)[C@H](Cc1ccccc1)NC(=O)[C@H](CCC(=O)O)NC(=O)C(C)(C)NC(=O)[C@H](CCC(N)=O)NC(=O)[C@H](C)NC(=O)[C@H](CCCCN)NC(=O)[C@H](CCC(=O)O)NC(=O)[C@H](CC(=O)O)NC(=O)[C@H](CC(C)C)NC(=O)[C@](C)(CC(C)C)NC(=O)[C@@H](NC(=O)[C@H](CO)NC(=O)[C@H](Cc1ccc(O)cc1)NC(=O)[C@H](CC(=O)O)NC(=O)[C@H](CO)NC(=O)[C@@H](NC(=O)[C@](C)(Cc1ccccc1F)NC(=O)[C@@H](NC(=O)CNC(=O)[C@H](CCC(=O)O)NC(=O)C(C)(C)NC(=O)[C@@H](N)Cc1ccc(O)cc1)[C@@H](C)O)[C@@H](C)O)[C@@H](C)CC)[C@@H](C)CC)C(=O)N[C@@H](CCC(=O)O)C(=O)NCC(=O)NCC(=O)N1CCC[C@H]1C(=O)N[C@@H](CO)C(=O)N[C@@H](CO)C(=O)NCC(=O)N[C@@H](C)C(=O)N1CCC[C@H]1C(=O)N1CCC[C@H]1C(=O)N1CCC[C@H]1C(=O)N[C@@H](CO)C(=O)N[C@@H](CS)C(N)=O [Example 278] (H-Y[Aib]EGT[αMePhe(2-F)]TSDYSI[αMeL]LDEKAQ[Aib]EFI[dE]YLIEGGPSSGAPPPSC-NH2; N-terminus assumed) has an EC50 [1] of 0.293 nM and an EC50 [2] of 0.123 nM.
CC[C@H](C)[C@H](NC(=O)[C@H](CC(C)C)NC(=O)[C@H](Cc1ccc(O)cc1)NC(=O)[C@@H](CCC(=O)O)NC(=O)[C@@H](NC(=O)[C@H](Cc1ccccc1)NC(=O)[C@H](CCC(=O)O)NC(=O)C(C)(C)NC(=O)[C@H](CCC(N)=O)NC(=O)[C@H](C)NC(=O)[C@H](CCC(N)=O)NC(=O)[C@H](CCC(=O)O)NC(=O)[C@H](CC(=O)O)NC(=O)[C@H](CC(C)C)NC(=O)[C@](C)(CC(C)C)NC(=O)[C@@H](NC(=O)[C@H](CO)NC(=O)[C@H](Cc1ccc(O)cc1)NC(=O)[C@H](CC(=O)O)NC(=O)[C@H](CO)NC(=O)[C@@H](NC(=O)[C@](C)(Cc1ccccc1F)NC(=O)[C@@H](NC(=O)CNC(=O)[C@H](CCC(=O)O)NC(=O)C(C)(C)NC(=O)[C@@H](N)Cc1ccc(O)cc1)[C@@H](C)O)[C@@H](C)O)[C@@H](C)CC)[C@@H](C)CC)C(=O)N[C@@H](CCC(=O)O)C(=O)NCC(=O)NCC(=O)N1CCC[C@H]1C(=O)N[C@@H](CO)C(=O)N[C@@H](CO)C(=O)NCC(=O)N[C@@H](C)C(=O)N1CCC[C@H]1C(=O)N1CCC[C@H]1C(=O)N1CCC[C@H]1C(=O)N[C@@H](CO)C(=O)N[C@@H](CS)C(N)=O [Example 279] (H-Y[Aib]EGT[αMePhe(2-F)]TSDYSI[αMeL]LDEQAQ[Aib]EFI[dE]YLIEGGPSSGAPPPSC-NH2) was tested, and the EC50 [1] was 0.564 nM and the EC50 [2] was 0.11 nM.
For CC[C@H](C)[C@H](NC(=O)[C@H](CC(C)C)NC(=O)[C@H](Cc1ccc(O)cc1)NC(=O)[C@@H](CCC(=O)O)NC(=O)[C@@H](NC(=O)[C@H](Cc1ccccc1)NC(=O)[C@H](CCC(=O)O)NC(=O)C(C)(C)NC(=O)[C@H](CCC(N)=O)NC(=O)[C@H](C)NC(=O)[C@H](CCCCN)NC(=O)[C@H](CCCN)NC(=O)[C@H](CC(=O)O)NC(=O)[C@H](CC(C)C)NC(=O)[C@](C)(CC(C)C)NC(=O)[C@@H](NC(=O)[C@H](CO)NC(=O)[C@H](Cc1ccc(O)cc1)NC(=O)[C@H](CC(=O)O)NC(=O)[C@H](CO)NC(=O)[C@@H](NC(=O)[C@](C)(Cc1ccccc1F)NC(=O)[C@@H](NC(=O)CNC(=O)[C@H](CCC(=O)O)NC(=O)C(C)(C)NC(=O)[C@@H](N)Cc1ccc(O)cc1)[C@@H](C)O)[C@@H](C)O)[C@@H](C)CC)[C@@H](C)CC)C(=O)N[C@@H](CCC(=O)O)C(=O)NCC(=O)NCC(=O)N1CCC[C@H]1C(=O)N[C@@H](CO)C(=O)N[C@@H](CO)C(=O)NCC(=O)N[C@@H](C)C(=O)N1CCC[C@H]1C(=O)N1CCC[C@H]1C(=O)N1CCC[C@H]1C(=O)N[C@@H](CO)C(N)=O [Example 280] (H-Y[Aib]EGT[αMePhe(2-F)]TSDYSI[αMeL]LD[Orn]KAQ[Aib]EFI[dE]YLIEGGPSSGAPPPS-NH2), the EC50 [1] was 0.204 nM and the EC50 [2] was 0.0767 nM.
CC[C@H](C)[C@H](NC(=O)[C@H](CC(C)C)NC(=O)[C@H](Cc1ccc(O)cc1)NC(=O)[C@@H](CCC(=O)O)NC(=O)[C@@H](NC(=O)[C@H](Cc1ccccc1)NC(=O)[C@H](CCC(=O)O)NC(=O)C(C)(C)NC(=O)[C@H](CCC(N)=O)NC(=O)[C@H](C)NC(=O)[C@H](CCC(N)=O)NC(=O)[C@H](CCCN)NC(=O)[C@H](CC(=O)O)NC(=O)[C@H](CC(C)C)NC(=O)[C@](C)(CC(C)C)NC(=O)[C@@H](NC(=O)[C@H](CO)NC(=O)[C@H](Cc1ccc(O)cc1)NC(=O)[C@H](CC(=O)O)NC(=O)[C@H](CO)NC(=O)[C@@H](NC(=O)[C@](C)(Cc1ccccc1F)NC(=O)[C@@H](NC(=O)CNC(=O)[C@H](CCC(=O)O)NC(=O)C(C)(C)NC(=O)[C@@H](N)Cc1ccc(O)cc1)[C@@H](C)O)[C@@H](C)O)[C@@H](C)CC)[C@@H](C)CC)C(=O)N[C@@H](CCC(=O)O)C(=O)NCC(=O)NCC(=O)N1CCC[C@H]1C(=O)N[C@@H](CO)C(=O)N[C@@H](CO)C(=O)NCC(=O)N[C@@H](C)C(=O)N1CCC[C@H]1C(=O)N1CCC[C@H]1C(=O)N1CCC[C@H]1C(=O)N[C@@H](CO)C(N)=O [Example 281] (H-Y[Aib]EGT[αMePhe(2-F)]TSDYSI[αMeL]LD[Orn]QAQ[Aib]EFI[dE]YLIEGGPSSGAPPPS-NH2) gave an EC50 [1] of 0.166 nM and an EC50 [2] of 0.16 nM.
In the case of CC[C@H](C)[C@H](NC(=O)[C@H](CC(C)C)NC(=O)[C@H](Cc1ccc(O)cc1)NC(=O)[C@@H](CCC(=O)O)NC(=O)[C@@H](NC(=O)[C@H](Cc1ccccc1)NC(=O)[C@H](CCC(=O)O)NC(=O)C(C)(C)NC(=O)[C@H](CCC(N)=O)NC(=O)[C@H](C)NC(=O)[C@H](CCCCN)NC(=O)[C@H](CCCN)NC(=O)[C@H](CC(=O)O)NC(=O)[C@H](CC(C)C)NC(=O)[C@](C)(CC(C)C)NC(=O)[C@@H](NC(=O)[C@H](CO)NC(=O)[C@H](Cc1ccc(O)cc1)NC(=O)[C@H](CC(=O)O)NC(=O)[C@H](CO)NC(=O)[C@@H](NC(=O)[C@](C)(Cc1ccccc1F)NC(=O)[C@@H](NC(=O)CNC(=O)[C@H](CCC(=O)O)NC(=O)C(C)(C)NC(=O)[C@@H](N)Cc1ccc(O)cc1)[C@@H](C)O)[C@@H](C)O)[C@@H](C)CC)[C@@H](C)CC)C(=O)N[C@@H](CCC(=O)O)C(=O)NCC(=O)NCC(=O)N1CCC[C@H]1C(=O)N[C@@H](CO)C(=O)N[C@@H](CO)C(=O)NCC(=O)N[C@@H](C)C(=O)N1CCC[C@H]1C(=O)N1CCC[C@H]1C(=O)N1CCC[C@H]1C(=O)N[C@@H](CO)C(=O)N[C@@H](CS)C(N)=O [Example 282] (H-Y[Aib]EGT[αMePhe(2-F)]TSDYSI[αMeL]LD[Orn]KAQ[Aib]EFI[dE]YLIEGGPSSGAPPPSC-NH2), the EC50 [1] is reported as 0.323 nM and the EC50 [2] is reported as 0.247 nM.
Work on CC[C@H](C)[C@H](NC(=O)[C@H](CC(C)C)NC(=O)[C@H](Cc1ccc(O)cc1)NC(=O)[C@@H](CCC(=O)O)NC(=O)[C@@H](NC(=O)[C@H](Cc1ccccc1)NC(=O)[C@H](CCC(=O)O)NC(=O)C(C)(C)NC(=O)[C@H](CCC(N)=O)NC(=O)[C@H](C)NC(=O)[C@H](CCC(N)=O)NC(=O)[C@H](CCCN)NC(=O)[C@H](CC(=O)O)NC(=O)[C@H](CC(C)C)NC(=O)[C@](C)(CC(C)C)NC(=O)[C@@H](NC(=O)[C@H](CO)NC(=O)[C@H](Cc1ccc(O)cc1)NC(=O)[C@H](CC(=O)O)NC(=O)[C@H](CO)NC(=O)[C@@H](NC(=O)[C@](C)(Cc1ccccc1F)NC(=O)[C@@H](NC(=O)CNC(=O)[C@H](CCC(=O)O)NC(=O)C(C)(C)NC(=O)[C@@H](N)Cc1ccc(O)cc1)[C@@H](C)O)[C@@H](C)O)[C@@H](C)CC)[C@@H](C)CC)C(=O)N[C@@H](CCC(=O)O)C(=O)NCC(=O)NCC(=O)N1CCC[C@H]1C(=O)N[C@@H](CO)C(=O)N[C@@H](CO)C(=O)NCC(=O)N[C@@H](C)C(=O)N1CCC[C@H]1C(=O)N1CCC[C@H]1C(=O)N1CCC[C@H]1C(=O)N[C@@H](CO)C(=O)N[C@@H](CS)C(N)=O [Example 283] (H-Y[Aib]EGT[αMePhe(2-F)]TSDYSI[αMeL]LD[Orn]QAQ[Aib]EFI[dE]YLIEGGPSSGAPPPSC-NH2) yielded an EC50 [1] of 0.301 nM and an EC50 [2] of 0.155 nM.
CC[C@H](C)[C@H](NC(=O)[C@H](CC(C)C)NC(=O)[C@](C)(Cc1ccc(O)cc1)NC(=O)[C@@H](CCC(=O)O)NC(=O)[C@@H](NC(=O)[C@H](Cc1ccccc1)NC(=O)[C@H](CCC(=O)O)NC(=O)C(C)(C)NC(=O)[C@H](CCC(N)=O)NC(=O)[C@H](C)NC(=O)[C@H](CCCCN)NC(=O)[C@H](CCCN)NC(=O)[C@H](CC(=O)O)NC(=O)[C@H](CC(C)C)NC(=O)[C@](C)(CC(C)C)NC(=O)[C@@H](NC(=O)[C@H](CO)NC(=O)[C@H](Cc1ccncc1)NC(=O)[C@H](CC(=O)O)NC(=O)[C@H](CO)NC(=O)[C@@H](NC(=O)[C@](C)(Cc1ccccc1F)NC(=O)[C@@H](NC(=O)CNC(=O)[C@H](CCC(=O)O)NC(=O)C(C)(C)NC(=O)[C@@H](N)Cc1ccc(O)cc1)[C@@H](C)O)[C@@H](C)O)[C@@H](C)CC)[C@@H](C)CC)C(=O)N[C@@H](CCC(=O)O)C(=O)NCC(=O)NCC(=O)N1CCC[C@H]1C(=O)N[C@@H](CO)C(=O)N[C@@H](CO)C(=O)NCC(=O)N[C@@H](C)C(=O)N1CCC[C@H]1C(=O)N1CCC[C@H]1C(=O)N1CCC[C@H]1C(=O)N[C@@H](CO)C(N)=O [Example 284] (H-Y[Aib]EGT[αMePhe(2-F)]TSD[4Pal]SI[αMeL]LD[Orn]KAQ[Aib]EFI[dE][αMeY]LIEGGPSSGAPPPS-NH2) showed an EC50 [1] of 0.113 nM and an EC50 [2] of 0.0462 nM.
